The assay concerns the target Adenosylhomocysteinase (Homo sapiens) (UniProt P23526). Kind of assay: Enzyme catalytic rate kinetic constant for S-adenosyl-L-homocysteine hydrolase; Not a substrate.

Sequence of Adenosylhomocysteinase (Homo sapiens) (P23526 2-432 limits assumed): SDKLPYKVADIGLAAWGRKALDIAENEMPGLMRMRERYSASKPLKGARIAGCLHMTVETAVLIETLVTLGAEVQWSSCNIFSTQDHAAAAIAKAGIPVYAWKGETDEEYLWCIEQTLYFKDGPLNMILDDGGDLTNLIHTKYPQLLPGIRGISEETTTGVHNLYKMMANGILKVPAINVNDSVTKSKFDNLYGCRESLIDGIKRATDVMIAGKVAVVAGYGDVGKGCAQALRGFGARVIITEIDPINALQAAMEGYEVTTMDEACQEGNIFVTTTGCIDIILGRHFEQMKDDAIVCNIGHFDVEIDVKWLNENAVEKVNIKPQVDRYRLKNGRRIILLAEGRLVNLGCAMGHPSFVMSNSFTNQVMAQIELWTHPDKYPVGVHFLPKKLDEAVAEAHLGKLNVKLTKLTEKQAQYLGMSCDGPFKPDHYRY

On to `Nc1nc(O)cc(-c2cncn2C2O[C@H](CO)[C@@H](O)[C@H]2O)n1` (stereo partly specified), for which the k cat entry was “Not a substrate”.

Source of the values: ChEMBL document CHEMBL1136535, “Unexpected inhibition of S-adenosyl-L-homocysteine hydrolase by a guanosine nucleoside” (Bioorg Med Chem Lett, 2003).
